Read-outs that look alike come from different tables or passages of the source.
What was measured:
Assay type in all cases: biochemical, human
ALK (h) = system: ALK (h)
Protocol: (§1) Assay conditions included 10 μM ATP and 100 nM test compounds.
(§2) All reactions are initiated by the addition of the MgATP mix. After incubation for 40 minutes at room temperature, the reaction is stopped by the addition of 3% phosphoric acid solution. 10 μL of the reaction is then spotted onto a P30 filtermat and washed three times for 5 minutes in 75 mM phosphoric acid and once in methanol prior to drying and scintillation counting. This assay is performed by Millipore. The experiment is carried out in duplicate. The value for the control sample (DMSO) was set to 100%, and the values for the compound-treated samples were expressed as activity relative to the control sample.

EGFR (T790M, L858R) (h) = system: EGFR (T790M, L858R) (h)
Protocol: as §1
(§3) All reactions are initiated by the addition of the MgATP mix. After incubation for 40 minutes at room temperature, the reaction is stopped by the addition of 3% phosphoric acid solution. 10 μL of the reaction is then spotted onto a P30 filtermat and washed three times for 5 minutes in 75 mM phosphoric acid and once in methanol prior to drying and scintillation counting. […] The experiment is carried out in duplicate. The value for the control sample (DMSO) was set to 100%, and the values for the compound-treated samples were expressed as activity relative to the control sample.
(§4) (specific activity approx. 500 cpm/pmol, concentration as required) and 0.1 μM test compound.

EGFR (T790M) (h) = system: EGFR (T790M) (h)
Protocol: as §1, §2

EGFR (L858R) (h) = system: EGFR (L858R) (h)
Protocol: as §1, §3, §4

[1] = 0.1 μM test compound, 10 μM ATP, remaining activity relative to DMSO control = 100%

Row | Compound | Activity (control) % ALK (h) (ALK (h); [1]) | Activity (control) % EGFR (T790M, L858R) (h) (EGFR (T790M, L858R) (h); [1]) | Activity (control) % EGFR (T790M) (h) (EGFR (T790M) (h); [1]) | Activity (control) % EGFR (L858R) (h) (EGFR (L858R) (h); [1]) | Activity (control) % ALK (h) (ALK (h)) | Activity (control) % EGFR (T790M, L858R) (h) (EGFR (T790M, L858R) (h)) | Activity (control) % EGFR (T790M) (h) (EGFR (T790M) (h)) | Activity (control) % EGFR (L858R) (h) (EGFR (L858R) (h))
1 | C=CC(=O)Nc1cc(Nc2ncc(Cl)c(Nc3ccccc3C(=O)C(=O)NC)n2)ccc1OC [Example 64, N-(5-(5-chloro-4-(2-(2-(methylamino)-2-oxoacetyl)phenylamino)pyrimidin-2-ylamino)-2-methoxyphenyl)acrylamide] | 47% | 39% | 79% | 100% | – | – | – | –
2 | C=CC(=O)Nc1cc(Nc2ncc(Cl)c(Nc3ccccc3C(=O)C(=O)N(C)C)n2)ccc1N1CCN(C)CC1 [Example 111, N-(5-(5-chloro-4-(2-(2-(dimethylamino)-2-oxoacetyl)phenylamino)pyrimidin-2-ylamino)-2-(4-methylpiperazin-1-yl)phenyl)acrylamide] | 8% | 11% | 59% | 76% | – | – | – | –
3 | C=CC(=O)Nc1cccc(Nc2ncc(Cl)c(Nc3ccccc3C(=O)C(=O)N(C)C)n2)c1 [Example 40, N-(3-(5-chloro-4-(2-(2-(dimethylamino)-2-oxoacetyl)phenylamino)pyrimidin-2-ylamino)phenyl)acrylamide] | 28% | 24% | 79% | – | – | – | – | –
4 | COc1cc(Nc2ncc(Cl)c(Nc3ccccc3C(=O)C(=O)N(C)C)n2)ccc1N1CCOCC1 [Example 117, 2-(2-(5-chloro-2-(3-methoxy-4-morpholinophenylamino)pyrimidin-4-ylamino)phenyl)-N,N-dimethyl-2-oxoacetamide] | 8% | 14% | 65% | 88% | – | – | – | –
5 | CCC(=O)Nc1cc(Nc2ncc(Cl)c(Nc3ccccc3C(=O)C(=O)N(C)C)n2)ccc1OCCN(C)C [Example 120, N-(5-(5-chloro-4-(2-(2-(dimethylamino)-2-oxoacetyl)phenylamino)pyrimidin-2-ylamino)-2-(2-(dimethylamino)ethoxy)phenyl)propionamide] | 8% | 14% | 62% | 76% | – | – | – | –
6 | C=CC(=O)N1CCOc2ccc(Nc3ncc(Cl)c(Nc4ccccc4C(=O)C(=O)N(C)C)n3)cc21 [Example 87, 2-(2-(2-(4-acryloyl-3,4-dihydro-2H-benzo[b][1,4]oxazin-6-ylamino)-5-chloropyrimidin-4-ylamino)phenyl)-N,N-dimethyl-2-oxoacetamide] | – | – | – | – | 5% | – | – | –
7 | COc1ccc(NC(=O)/C=C/CN2CCCCC2)cc1Nc1ncc(Cl)c(Nc2ccccc2C(=O)C(=O)N(C)C)n1 [Example 72, (E)-N-(3-(5-chloro-4-(2-(2-(dimethylamino)-2-oxoacetyl)phenylamino)pyrimidin-2-ylamino)-4-methoxyphenyl)-4-(piperidin-1-yl)but-2-enamide] | 14% | 9% | 54% | 28% | – | – | – | –
8 | COc1cc(Nc2ncc(Cl)c(Nc3ccccc3C(=O)C(=O)N(C)C)n2)ccc1N1CCN(C)CC1 [Example 61, 2-(2-(5-chloro-2-(3-methoxy-4-(4-methylpiperazin-1-yl)phenylamino)pyrimidin-4-ylamino)phenyl)-N,N-dimethyl-2-oxoacetamide] | – | – | – | – | 5% | 13% | 54% | 70%
9 | COc1ccc(NC(=O)/C=C/CN(C)C)cc1Nc1ncc(Cl)c(Nc2ccccc2C(=O)C(=O)N(C)C)n1 [Example 80, (E)-N-(3-(5-chloro-4-(2-(2-(dimethylamino)-2-oxoacetyl)phenylamino)pyrimidin-2-ylamino)-4-methoxyphenyl)-4-(dimethylamino)but-2-enamide] | 10% | 7% | 42% | 43% | – | – | – | –
10 | C=C(CN1CCCCC1)C(=O)Nc1cc(Nc2ncc(Cl)c(Nc3ccccc3C(=O)C(=O)N(C)C)n2)ccc1N1CCOCC1 [Example 129, N-(5-(5-chloro-4-(2-(2-(dimethylamino)-2-oxoacetyl)phenylamino)pyrimidin-2-ylamino)-2-morpholinophenyl)-2-(piperidin-1-ylmethyl)acrylamide] | 8% | 3% | 24% | 75% | – | – | – | –
11 | CCN(CC)C(=O)C(=O)c1ccccc1Nc1nc(Nc2ccc(N3CCN(C)CC3)c(OC)c2)ncc1Cl [Example 130, 2-(2-(5-chloro-2-(3-methoxy-4-(4-methylpiperazin-1-yl)phenylamino)pyrimidin-4-ylamino)phenyl)-N,N-diethyl-2-oxoacetamide] | 13% | 22% | 84% | 98% | – | – | – | –
12 | C=CC(=O)Nc1cc(Nc2ncc(Cl)c(Nc3ccccc3C(=O)C(=O)N(C)C)n2)ccc1OCCN(C)C [Example 115, N-(5-(5-chloro-4-(2-(2-(dimethylamino)-2-oxoacetyl)phenylamino)pyrimidin-2-ylamino)-2-(2-(dimethylamino)ethoxy)phenyl)acrylamide] | 6% | – | – | – | – | – | – | –
13 | C=CC(=O)Nc1cc(Nc2ncc(Cl)c(Nc3ccccc3C(=O)C(=O)N(CC)CC)n2)ccc1OC [Example 132, N-(5-(5-chloro-4-(2-(2-(diethylamino)-2-oxoacetyl)phenylamino)pyrimidin-2-ylamino)-2-methoxyphenyl)acrylamide] | 16% | 30% | 77% | – | – | – | – | –
14 | C=CC(=O)Nc1ccc(N2CCN(C)CC2)c(Nc2ncc(Cl)c(Nc3ccccc3C(=O)C(=O)N(C)C)n2)c1 [Example 135, N-(3-(5-chloro-4-(2-(2-(dimethylamino)-2-oxoacetyl)phenylamino)pyrimidin-2-ylamino)-4-(4-methylpiperazin-1-yl)phenyl)acrylamide] | 80% | 95% | 96% | – | – | – | – | –
15 | COc1cc(N2CCN(C(C)=O)CC2)ccc1Nc1ncc(Cl)c(Nc2ccccc2C(=O)C(=O)N(C)C)n1 [Example 53, 2-(2-(2-(4-(4-acetylpiperazin-1-yl)-2-methoxyphenylamino)-5-chloropyrimidin-4-ylamino)phenyl)-N,N-dimethyl-2-oxoacetamide] | – | 4% | 21% | 60% | – | – | – | –
16 | C=CC(=O)Nc1ccc(OC)c(Nc2ncc(Cl)c(Nc3ccccc3C(=O)C(=O)N(CC)CC)n2)c1 [Example 131, N-(3-(5-chloro-4-(2-(2-(diethylamino)-2-oxoacetyl)phenylamino)pyrimidin-2-ylamino)-4-methoxyphenyl)acrylamide] | 9% | 27% | 82% | – | – | – | – | –

From US9783524B2, “Protein tyrosine kinase modulators and methods of use” (BETTA PHARMACEUTICALS CO., LTD., priority 2013, dated 2017)
